Columns and labels:
[1] = target: Cyclin-dependent kinase 9 (Homo sapiens, UniProt P50750); test: Inhibition of CDK9
[2] = target: Cyclin-dependent kinase 2 (Homo sapiens, UniProt P24941); test: Inhibition of CDK2
[3] = target: Cyclin-dependent kinase 1 (Homo sapiens, UniProt P06493); test: Inhibition of CDK1
[4] = target: Cyclin-dependent kinase 5 (Homo sapiens, UniProt Q00535); test: Inhibition of CDK5
[5] = target: T1, Cyclin-dependent kinase 4 (Homo sapiens, UniProt P11802); test: Inhibition of CDK4
T1 sequence (P11802 whole entry): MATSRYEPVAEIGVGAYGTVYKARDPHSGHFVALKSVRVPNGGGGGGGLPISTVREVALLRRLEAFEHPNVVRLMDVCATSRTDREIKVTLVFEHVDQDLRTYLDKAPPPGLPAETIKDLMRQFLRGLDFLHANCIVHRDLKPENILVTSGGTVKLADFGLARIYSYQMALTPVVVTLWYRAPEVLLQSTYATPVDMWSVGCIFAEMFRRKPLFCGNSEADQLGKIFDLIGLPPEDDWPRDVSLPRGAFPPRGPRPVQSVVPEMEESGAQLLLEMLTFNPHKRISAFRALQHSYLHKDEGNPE

[6] = target: Cyclin-dependent kinase 7 (Homo sapiens, UniProt P50613); test: Inhibition of CDK7
Chain of Cyclin-dependent kinase 7 (P50613 whole entry): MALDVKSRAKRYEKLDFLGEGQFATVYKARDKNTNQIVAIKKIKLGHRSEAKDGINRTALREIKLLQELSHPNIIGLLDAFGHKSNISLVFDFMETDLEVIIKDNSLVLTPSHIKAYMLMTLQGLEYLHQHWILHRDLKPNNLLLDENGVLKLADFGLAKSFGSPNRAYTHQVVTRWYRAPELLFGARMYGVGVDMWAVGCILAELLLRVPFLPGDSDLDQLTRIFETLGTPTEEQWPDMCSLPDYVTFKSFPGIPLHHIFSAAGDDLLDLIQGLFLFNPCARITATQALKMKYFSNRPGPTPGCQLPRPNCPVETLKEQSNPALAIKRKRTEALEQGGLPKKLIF

[7] = test system: EOL1; test: Inhibition of BrdU incorporation in Eol1 xenografted in nude rat at 510 nM, iv after 24 hrs; type: functional, Homo sapiens
[8] = test system: EOL1; test: Inhibition of pRb phosphorylation in Eol1 xenografted in nude rat at 510 nM, iv after 24 hrs; type: functional, Homo sapiens
[9] = target: T1, Cyclin-dependent kinase 4; test: Inhibition of pRb phosphorylation at Ser780 residue by CDK4; type: functional; settings: concentration not given here
[10] = target: Cyclin-dependent kinase 6 (Homo sapiens) (UniProt Q00534); test: Inhibition of pRb phosphorylation at Ser780 residue by CDK6; type: functional; settings: concentration not given here
Chain of Cyclin-dependent kinase 6 (Homo sapiens) (Q00534 whole entry): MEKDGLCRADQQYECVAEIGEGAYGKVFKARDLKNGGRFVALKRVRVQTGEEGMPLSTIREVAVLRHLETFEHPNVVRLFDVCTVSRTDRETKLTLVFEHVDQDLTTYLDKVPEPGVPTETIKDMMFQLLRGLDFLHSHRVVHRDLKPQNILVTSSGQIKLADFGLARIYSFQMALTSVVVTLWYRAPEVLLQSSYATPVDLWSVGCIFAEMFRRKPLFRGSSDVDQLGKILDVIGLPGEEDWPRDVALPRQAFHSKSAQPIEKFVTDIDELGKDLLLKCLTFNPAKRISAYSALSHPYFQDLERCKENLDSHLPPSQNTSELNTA

[11] = test system: EOL1; test: Cell cycle arrest in Eol1 cells by accumulation at G1 phase; type: functional, Homo sapiens

Chain of Cyclin-dependent kinase 9 (P50750 whole entry): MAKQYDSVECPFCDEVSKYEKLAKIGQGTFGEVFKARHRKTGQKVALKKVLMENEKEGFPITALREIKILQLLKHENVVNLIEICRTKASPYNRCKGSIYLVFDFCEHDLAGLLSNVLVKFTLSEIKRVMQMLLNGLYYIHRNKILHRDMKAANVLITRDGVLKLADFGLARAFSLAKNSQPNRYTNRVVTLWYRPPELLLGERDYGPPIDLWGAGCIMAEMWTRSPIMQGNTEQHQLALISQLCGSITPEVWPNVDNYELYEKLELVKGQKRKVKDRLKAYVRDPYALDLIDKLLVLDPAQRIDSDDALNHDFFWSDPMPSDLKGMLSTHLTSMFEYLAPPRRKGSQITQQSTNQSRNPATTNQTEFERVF
Chain of Cyclin-dependent kinase 5 (Q00535 whole entry): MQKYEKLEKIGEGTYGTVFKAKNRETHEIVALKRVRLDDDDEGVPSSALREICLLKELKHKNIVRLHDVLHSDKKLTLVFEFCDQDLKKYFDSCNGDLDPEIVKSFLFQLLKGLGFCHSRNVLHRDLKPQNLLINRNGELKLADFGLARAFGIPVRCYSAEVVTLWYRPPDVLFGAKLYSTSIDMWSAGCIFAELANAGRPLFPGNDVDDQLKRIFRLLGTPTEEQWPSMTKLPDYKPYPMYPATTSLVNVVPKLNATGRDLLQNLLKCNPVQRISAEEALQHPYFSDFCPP
Chain of Cyclin-dependent kinase 1 (P06493 whole entry): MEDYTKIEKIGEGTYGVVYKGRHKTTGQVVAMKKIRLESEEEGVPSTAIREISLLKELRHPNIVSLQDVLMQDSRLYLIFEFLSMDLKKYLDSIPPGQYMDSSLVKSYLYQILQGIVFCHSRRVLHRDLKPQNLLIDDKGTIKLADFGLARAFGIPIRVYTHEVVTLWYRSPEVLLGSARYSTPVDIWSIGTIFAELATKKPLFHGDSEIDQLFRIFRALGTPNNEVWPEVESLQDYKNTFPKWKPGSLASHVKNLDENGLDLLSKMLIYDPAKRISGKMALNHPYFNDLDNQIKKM

IC50 [1] | IC50 [2] | IC50 [3] | IC50 [4] | IC50 [5] | IC50 [6] | inhibition [9] | inhibition [10] | SMILES | Inhibition [7] | Inhibition [8] | Activity [11]
26 nM | 270 nM | > 1000 nM | > 10000 nM | 13 nM | 190 nM | – | – | Cc1cnc(OC2CCCCC2)nc1-c1cnc(Nc2ccccn2)s1 | – | – | –
> 10000 nM | > 10000 nM | > 10000 nM | > 10000 nM | 34 nM | > 10000 nM | – | – | Cc1cc(-c2cnc(Nc3ccccn3)s2)nc(OC2CCCCC2)n1 | – | – | –
2.5 nM | 14 nM | 24 nM | 34 nM | 4.2 nM | 20 nM | – | – | c1ccc(Nc2ncc(-c3ccnc(OC4CCCCC4)n3)s2)nc1 | – | – | –
– | – | – | 3000 nM | – | – | > 80% | > 80% | Cc1cc(-c2cnc(Nc3cnc(CN4CCN(C)CC4)cn3)s2)nc(OC2CCCCC2)n1 | 91% | 99% | 90%
